Results from EPA's ToxRefDB 2.

Assays:
rabbit = details: Prenatal developmental toxicity study, chinchilla, Oral, Gavage/Intubation, dose end: 18 GD
rat [1] = details: Multigenerational reproductive toxicity study, sprague dawley, Oral, Feed, dose end: 2 generation
rat [2] = details: Combined chronic toxicity/carcinogenicity, fischer, Oral, Feed, dose end: 24 month
mouse [3] = details: Carcinogenicity, cd1, Oral, Feed, dose end: 87 week, group: systemic
rat [4] = details: Combined chronic toxicity/carcinogenicity; sprague dawley; Oral; Feed; dose end: 24 month; group: systemic; systemic / in life observation / clinical signs / urine staining - perineum
mouse [5] = details: Combined chronic toxicity/carcinogenicity, cd1, Oral, Feed, dose end: 78 week, group: systemic
dog [6] = details: Chronic toxicity, beagle, Oral, Feed, dose end: 52 week, group: systemic
rat [7] = details: Carcinogenicity; fischer; Oral; Feed; dose end: 104 week; group: systemic; systemic / in life observation / body weight / body weight + systemic / pathology microscopic / kidney / cytomegaly + systemic / pathology …
mouse [8] = details: Subchronic oral toxicity in rodents, b6c3f1, Feed, dose end: 13 week, group: systemic
rat [9] = details: Subchronic oral toxicity in rodents, fischer, Feed, dose end: 13 week, group: systemic
mouse [10] = details: Carcinogenicity; b6c3f1; Oral; Feed; dose end: 104 week; group: systemic; systemic / in life observation / body weight / body weight
mouse [11] = details: Carcinogenicity, cd1, Oral, Feed, dose end: 2 year, group: systemic
rat [12] = details: Prenatal developmental toxicity study, sprague dawley, Oral, Gavage/Intubation, dose end: 15 GD
rat [13] = details: Combined chronic toxicity/carcinogenicity, sprague dawley, Oral, Feed, dose end: 24 month, group: systemic
rat [14] = details: Combined chronic toxicity/carcinogenicity; wistar; Oral; Feed; dose end: 2 year; group: systemic; systemic / in life observation / body weight / body weight gain + systemic / in life observation / food consumption / food consumption + …
mouse [15] = details: Combined chronic toxicity/carcinogenicity, other, Oral, Feed, dose end: 80 week, group: systemic
dog [16] = details: Chronic toxicity; beagle; Oral; Capsule; dose end: 52 week; group: systemic; systemic / clinical chemistry / alanine aminotransferase (alt/sgpt) / alanine aminotransferase (alt/sgpt) + systemic / in life observation…
mouse [17] = details: Subchronic oral toxicity in rodents, b6c3f1, Gavage/Intubation, dose end: 13 week, group: systemic
mouse [18] = details: Carcinogenicity, b6c3f1, Oral, Gavage/Intubation, dose end: 2 year, group: systemic
rat [19] = details: Subchronic oral toxicity in rodents, fischer, Gavage/Intubation, dose end: 13 week, group: systemic, systemic / in life observation / body weight / body weight
[20] = group: developmental, developmental / developmental malformation / bone / absent + developmental / developmental malformation / bone / fused + developmental / …
[21] = group: maternal, systemic / in life observation / body weight / body weight gain + systemic / in life observation / clinical signs / ataxia + systemic / in …
[22] = group: cholinesterase, cholinesterase / cholinesterase / cholinesterase / plasma cholinesterase (che)
[23] = group: offspring, developmental / offspring survival late / lactation index / lactation index
[24] = group: offspring, developmental / offspring survival late / lactation index / lactation index + systemic / in life observation / body weight / offspring (pup…
[25] = group: parental, systemic / in life observation / body weight / body weight
[26] = group: parental, systemic / organ weight / ovary / relative to body weight
[27] = group: cholinesterase, cholinesterase / cholinesterase / cholinesterase / brain cholinesterase (che) + cholinesterase / cholinesterase / cholinesterase / …
[28] = group: systemic, systemic / hematology / mean corpuscular (cell) volume (mcv) / mean corpuscular (cell) volume (mcv) + systemic / in life observation / body …
[29] = systemic / organ weight / brain / absolute
[30] = systemic / organ weight / brain / absolute + systemic / in life observation / body weight / body weight + systemic / in life observation / …
[31] = systemic / in life observation / body weight / body weight gain + systemic / in life observation / body weight / body weight + systemic / …
[32] = systemic / clinical chemistry / alanine aminotransferase (alt/sgpt) / alanine aminotransferase (alt/sgpt) + systemic / clinical chemistry / …
[33] = systemic / organ weight / liver / absolute
[34] = systemic / in life observation / body weight / body weight
[35] = systemic / in life observation / food consumption / food consumption
[36] = systemic / pathology microscopic / heart / degeneration
[37] = systemic / pathology microscopic / heart / degeneration + systemic / pathology microscopic / liver / hemosiderin laden macrophages
[38] = group: developmental, developmental / developmental malformation / bone / incomplete ossification + developmental / developmental malformation / interparietal / …
[39] = group: maternal, systemic / in life observation / body weight / body weight + systemic / in life observation / food consumption / food consumption
[40] = group: maternal, systemic / in life observation / body weight / body weight + systemic / in life observation / food consumption / food consumption + systemic…
[41] = systemic / pathology microscopic / mammary gland / adenocarcinoma
[42] = systemic / in life observation / body weight / body weight + systemic / organ weight / kidney / relative to body weight + systemic / organ …
[43] = systemic / organ weight / liver / relative to body weight
[44] = systemic / pathology microscopic / stomach / inflammation
[45] = systemic / pathology microscopic / stomach / inflammation + systemic / in life observation / body weight / body weight + systemic / …
[46] = systemic / pathology microscopic / liver / vacuolization + systemic / pathology microscopic / thyroid gland / hyperplasia
[47] = systemic / pathology microscopic / liver / vacuolization + systemic / pathology microscopic / thyroid gland / hyperplasia + systemic / …

CCOP(=O)(NC(C)C)Oc1ccc(SC)c(C)c1 (stereo not given) [Fenamiphos]
LEL (rabbit; [20]): 2.5 mg/kg/day
LOAEL (rabbit; [20]): 2.5 mg/kg/day
NEL (rabbit; [20]): 0.5 mg/kg/day
NOAEL (rabbit; [20]): 0.5 mg/kg/day
LEL (rabbit; [21]): 2.5 mg/kg/day
LOAEL (rabbit; [21]): 2.5 mg/kg/day
NEL (rabbit; [21]): 0.5 mg/kg/day
NOAEL (rabbit; [21]): 0.5 mg/kg/day
LEL (rat [1]; [22]): 0.19 mg/kg/day
LOAEL (rat [1]; [22]): 0.19 mg/kg/day
NEL (rat [1]; [22]): < 0.19 mg/kg/day
NOAEL (rat [1]; [22]): < 0.19 mg/kg/day
LEL (rat [1]; [23]): 0.65 mg/kg/day
LOAEL (rat [1]; [23]): 0.65 mg/kg/day
NEL (rat [1]; [24]): 0.17 mg/kg/day
NOAEL (rat [1]; [24]): 0.17 mg/kg/day
LOAEL (rat [1]; [25]): > 2.94 mg/kg/day
NOAEL (rat [1]; [25]): ≥ 2.94 mg/kg/day
LEL (rat [1]; [26]): 0.2 mg/kg/day
NEL (rat [1]; [26]): < 0.2 mg/kg/day
LEL (rat [2]; [27]): 0.098 mg/kg/day
LOAEL (rat [2]; [27]): 0.098 mg/kg/day
NEL (rat [2]; [27]): < 0.098 mg/kg/day
NOAEL (rat [2]; [27]): < 0.098 mg/kg/day
LEL (rat [2]; [28]): 2.45 mg/kg/day
LOAEL (rat [2]; [28]): > 2.45 mg/kg/day
NEL (rat [2]; [28]): 0.464 mg/kg/day
NOAEL (rat [2]; [28]): ≥ 2.45 mg/kg/day
LEL (mouse [3]; [29]): 0.3 mg/kg/day
NEL (mouse [3]; [29]): < 0.3 mg/kg/day
LOAEL (mouse [3]; [30]): > 7.5 mg/kg/day
NOAEL (mouse [3]; [30]): ≥ 7.5 mg/kg/day

CC(C)C1(C)N=C(c2nc3ccccc3cc2C(=O)O)NC1=O (stereo not given) [Imazaquin]
LEL (rat [4]): 500 mg/kg/day
LOAEL (rat [4]): > 500 mg/kg/day
NEL (rat [4]): 250 mg/kg/day
NOAEL (rat [4]): ≥ 500 mg/kg/day
LOAEL (mouse [5]; systemic / in life observation / body weight / body weight gain): 600 mg/kg/day
LEL (mouse [5]; [31]): 600 mg/kg/day
NEL (mouse [5]; [31]): 150 mg/kg/day
NOAEL (mouse [5]; [31]): 150 mg/kg/day
LOAEL (dog [6]; [32]): 125 mg/kg/day
NOAEL (dog [6]; [32]): 25 mg/kg/day
LEL (dog [6]; [33]): 5 mg/kg/day
NEL (dog [6]; [33]): < 5 mg/kg/day

CN(C)C(=O)Nc1ccc(Cl)cc1 [Monuron]
LEL (rat [7]): 37.5 mg/kg/day
LOAEL (rat [7]): 75 mg/kg/day
NEL (rat [7]): < 37.5 mg/kg/day
NOAEL (rat [7]): 37.5 mg/kg/day
LEL (mouse [8]; [34]): 450 mg/kg/day
LOAEL (mouse [8]; [34]): 1800 mg/kg/day
NEL (mouse [8]; [34]): < 450 mg/kg/day
NOAEL (mouse [8]; systemic / in life observation / body weight / body weight + systemic / in life observation / mortality / mortality + systemic / pathology …): 900 mg/kg/day
LOAEL (rat [9]; [34]): 75 mg/kg/day
NOAEL (rat [9]; systemic / in life observation / body weight / body weight + systemic / in life observation / food consumption / food consumption + systemic…): 37.5 mg/kg/day
LEL (rat [9]; [35]): 37.5 mg/kg/day
NEL (rat [9]; [35]): < 37.5 mg/kg/day
LEL (mouse [10]): 750 mg/kg/day
LOAEL (mouse [10]): 750 mg/kg/day
NEL (mouse [10]): < 750 mg/kg/day
NOAEL (mouse [10]): < 750 mg/kg/day

CC(C)Nc1nc(Cl)nc(NC(C)C)n1 [Propazine]
NEL (mouse [11]; [36]): 150 mg/kg/day
NOAEL (mouse [11]; [36]): 150 mg/kg/day
LEL (mouse [11]; [37]): 450 mg/kg/day
LOAEL (mouse [11]; [37]): 450 mg/kg/day
LOAEL (rat [12]; [38]): 100 mg/kg/day
NEL (rat [12]; [38]): 10 mg/kg/day
NOAEL (rat [12]; [38]): 10 mg/kg/day
LEL (rat [12]; group: developmental, developmental / developmental malformation / interparietal / incomplete ossification): 100 mg/kg/day
LEL (rat [12]; [39]): 100 mg/kg/day
LOAEL (rat [12]; [39]): 100 mg/kg/day
NEL (rat [12]; [40]): 10 mg/kg/day
NOAEL (rat [12]; [40]): 10 mg/kg/day
LOAEL (rat [13]; [34]): 51 mg/kg/day
NOAEL (rat [13]; systemic / in life observation / body weight / body weight + systemic / in life observation / body weight / body weight gain): 5.2 mg/kg/day
LEL (rat [13]; [41]): 0.2 mg/kg/day
NEL (rat [13]; [41]): < 0.2 mg/kg/day

C/C=C/C=C/C(=O)O [Sorbic acid]
LEL (rat [14]): 5000 mg/kg/day
LOAEL (rat [14]): > 5000 mg/kg/day
NEL (rat [14]): 750 mg/kg/day
NOAEL (rat [14]): ≥ 5000 mg/kg/day
LOAEL (mouse [15]; [42]): > 15000 mg/kg/day
NOAEL (mouse [15]; [42]): ≥ 15000 mg/kg/day
LEL (mouse [15]; [43]): 1500 mg/kg/day
NEL (mouse [15]; [43]): < 1500 mg/kg/day

CNC(=O)N(C)c1nnc(C(C)(C)C)s1 [Tebuthiuron]
LEL (dog [16]): 50 mg/kg/day
LOAEL (dog [16]): 50 mg/kg/day
NEL (dog [16]): 25 mg/kg/day
NOAEL (dog [16]): 25 mg/kg/day

CCCCC(CC)COP(=O)(OCC(CC)CCCC)OCC(CC)CCCC (stereo not given) [Tris(2-ethylhexyl) phosphate]
LEL (mouse [17]; [44]): 500 mg/kg/day
NEL (mouse [17]; [44]): < 500 mg/kg/day
LOAEL (mouse [17]; [45]): 8000 mg/kg/day
NOAEL (mouse [17]; [45]): 4000 mg/kg/day
LEL (mouse [18]; [46]): 500 mg/kg/day
NEL (mouse [18]; [46]): < 500 mg/kg/day
LOAEL (mouse [18]; [47]): > 1000 mg/kg/day
NOAEL (mouse [18]; [47]): ≥ 1000 mg/kg/day
LEL (rat [19]): 2000 mg/kg/day
LOAEL (rat [19]): 2000 mg/kg/day
NEL (rat [19]): 1000 mg/kg/day
NOAEL (rat [19]): 1000 mg/kg/day
